Laboratory results from PubChem BioAssay (NCI).
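Step 1: Grow cells in 96-well plates. Step 2: Expose to compound for 48 hours at 5 concentrations. Step 3: Interpolate endpoints linearly; if unreached, use highest concentration. GI50 is the concentration that inhibits growth by half. Definition used: TGI = concentration required for complete inhibition of growth.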

What was measured:
Assay in all cases: inhibition of tumour cell growth, NCI panel, 48 h
ACHN renal = tested on: ACHN renal
CCRF-CEM leukemia = tested on: CCRF-CEM leukemia
HCT-15 colon = tested on: HCT-15 colon
HL-60(TB) leukemia = tested on: HL-60(TB) leukemia
KM12 colon = tested on: KM12 colon
MDA-MB-435 = tested on: MDA-MB-435
NCI-H460 lung = tested on: NCI-H460 lung
SW-620 colon = tested on: SW-620 colon
U251 CNS = tested on: U251 CNS
NCI-H522 lung = tested on: NCI-H522 lung

Compound: O=[N+]([O-])/C=C\c1ccc(Cl)c(Cl)c1
- GI50 (ACHN renal): 3.47 µM
- TGI (ACHN renal): 13.3 µM
- TGI (CCRF-CEM leukemia): 4.75 µM
- GI50 (HCT-15 colon): 3.23 µM
- TGI (HCT-15 colon): 17 µM
- GI50 (HL-60(TB) leukemia): 2.15 µM
- TGI (HL-60(TB) leukemia): 10.5 µM
- GI50 (KM12 colon): 2.08 µM
- TGI (KM12 colon): 4.56 µM
- GI50 (MDA-MB-435): 1.27 µM
- TGI (MDA-MB-435): 2.86 µM
- GI50 (NCI-H460 lung): 3.64 µM
- TGI (NCI-H460 lung): 25.1 µM
- GI50 (SW-620 colon): 1.3 µM
- TGI (SW-620 colon): 3.3 µM
- GI50 (U251 CNS): 0.916 µM
- TGI (U251 CNS): 2.14 µM

Compound: COc1cc(C2c3cc4c(cc3C(NCC(O)CO)C3COC(=O)[C@H]23)OCO4)cc(OC)c1OC (stereo not given in full)
- TGI (ACHN renal): > 100 µM
- TGI (CCRF-CEM leukemia): > 100 µM
- TGI (HCT-15 colon): > 100 µM
- TGI (HL-60(TB) leukemia): 0.543 µM
- TGI (KM12 colon): > 100 µM
- TGI (SW-620 colon): > 100 µM
- TGI (U251 CNS): 0.766 µM

Compound: Cc1nc2c(nc1Cl)nc(Oc1ccc(Cl)cc1)c1ccccc12
- TGI (ACHN renal): > 100 µM
- TGI (CCRF-CEM leukemia): > 100 µM
- TGI (HCT-15 colon): > 100 µM
- TGI (KM12 colon): > 100 µM
- TGI (NCI-H460 lung): > 100 µM
- TGI (NCI-H522 lung): > 100 µM
- TGI (SW-620 colon): > 100 µM
- TGI (U251 CNS): 40.6 µM

Compound: Cn1cc(-c2cnc3ccc(NC(=O)Nc4ccc(F)c(Br)c4)cc3n2)cn1
- GI50 (ACHN renal): 1.81 µM
- TGI (ACHN renal): 4.31 µM
- GI50 (CCRF-CEM leukemia): 2.06 µM
- TGI (CCRF-CEM leukemia): 6.21 µM
- GI50 (HCT-15 colon): 1.92 µM
- TGI (HCT-15 colon): 4.45 µM
- GI50 (KM12 colon): 1.71 µM
- TGI (KM12 colon): 3.65 µM
- GI50 (MDA-MB-435): 1.81 µM
- TGI (MDA-MB-435): 3.95 µM
- GI50 (NCI-H460 lung): 1.74 µM
- TGI (NCI-H460 lung): 3.77 µM
- GI50 (NCI-H522 lung): 1.71 µM
- TGI (NCI-H522 lung): 4.75 µM
- GI50 (SW-620 colon): 1.85 µM
- TGI (SW-620 colon): 3.83 µM
- GI50 (U251 CNS): 1.76 µM
- TGI (U251 CNS): 3.88 µM

Compound: Cc1ccc(CS/C(=C\c2ccc([N+](=O)[O-])cc2)C(=O)c2ccc(F)cc2)cc1
- GI50 (ACHN renal): 1.73 µM
- TGI (ACHN renal): 3.1 µM
- GI50 (CCRF-CEM leukemia): 2.23 µM
- TGI (CCRF-CEM leukemia): > 100 µM
- GI50 (HL-60(TB) leukemia): 2.9 µM
- TGI (HL-60(TB) leukemia): 17.3 µM
- GI50 (KM12 colon): 2.16 µM
- TGI (KM12 colon): 5.13 µM
- GI50 (MDA-MB-435): 2.41 µM
- TGI (MDA-MB-435): 6.49 µM
- GI50 (NCI-H460 lung): 6.44 µM
- TGI (NCI-H460 lung): 22.5 µM
- GI50 (SW-620 colon): 1.67 µM
- TGI (SW-620 colon): 3.71 µM
- GI50 (U251 CNS): 1.67 µM
- TGI (U251 CNS): 3.1 µM

Compound: COC(=O)C(=O)C(C(=O)C=C(C)C)C(=O)C(=O)Nc1cc(C(F)(F)F)ccc1Cl (stereo not given)
- TGI (ACHN renal): > 100 µM
- TGI (CCRF-CEM leukemia): 71.2 µM
- TGI (HCT-15 colon): > 100 µM
- TGI (HL-60(TB) leukemia): > 100 µM
- TGI (KM12 colon): > 100 µM
- TGI (NCI-H460 lung): > 100 µM
- TGI (NCI-H522 lung): > 100 µM
- TGI (U251 CNS): > 100 µM

Compound: CCOc1ccc2c(c1)[n+]([O-])c(S(=O)(=O)c1ccc(C)cc1)c(N)[n+]2[O-]
- TGI (ACHN renal): > 100 µM
- TGI (CCRF-CEM leukemia): > 100 µM
- TGI (HL-60(TB) leukemia): > 100 µM
- TGI (KM12 colon): > 100 µM
- TGI (NCI-H460 lung): > 100 µM
- TGI (NCI-H522 lung): > 100 µM
- TGI (SW-620 colon): > 100 µM
- TGI (U251 CNS): > 100 µM

Compound: O=C1c2c(c3c4ccccc4n(CCCCCCBr)c3c3[nH]c4ccccc4c23)C(=O)N1O
- GI50 (ACHN renal): 2.61 µM
- TGI (ACHN renal): 11.1 µM
- GI50 (CCRF-CEM leukemia): 2.14 µM
- TGI (CCRF-CEM leukemia): 5.53 µM
- GI50 (HCT-15 colon): 2.64 µM
- TGI (HCT-15 colon): 11.2 µM
- GI50 (HL-60(TB) leukemia): 2.08 µM
- TGI (HL-60(TB) leukemia): 4.63 µM
- GI50 (KM12 colon): 2.59 µM
- TGI (KM12 colon): 10.4 µM
- GI50 (MDA-MB-435): 1.98 µM
- TGI (MDA-MB-435): 4.97 µM
- GI50 (NCI-H460 lung): 3.35 µM
- TGI (NCI-H460 lung): 11.8 µM
- GI50 (SW-620 colon): 3.56 µM
- TGI (SW-620 colon): 14.3 µM
- GI50 (U251 CNS): 3.47 µM
- TGI (U251 CNS): 13.3 µM

Compound: CC1(C)CC(/C=C2/OC(=O)c3ccccc32)=C(C#N)C(=O)O1
- TGI (ACHN renal): > 100 µM
- TGI (CCRF-CEM leukemia): > 100 µM
- TGI (HCT-15 colon): > 100 µM
- TGI (KM12 colon): > 100 µM
- TGI (NCI-H460 lung): > 100 µM
- TGI (NCI-H522 lung): > 100 µM
- TGI (SW-620 colon): > 100 µM
- TGI (U251 CNS): > 100 µM

Compound: N#CC(C(=N/O)/C(=N/O)C(C#N)c1ccc(Cl)cc1)c1ccc(Cl)cc1 (stereo not given)
- TGI (ACHN renal): > 100 µM
- TGI (HCT-15 colon): > 100 µM
- TGI (KM12 colon): > 100 µM
- TGI (NCI-H460 lung): > 100 µM
- TGI (SW-620 colon): > 100 µM
- TGI (U251 CNS): > 100 µM

Compound: CCCCNC1=C(C(=O)OCC)C(=O)CO1
- TGI (ACHN renal): > 100 µM
- TGI (CCRF-CEM leukemia): > 100 µM
- TGI (HCT-15 colon): > 100 µM
- TGI (HL-60(TB) leukemia): > 100 µM
- TGI (KM12 colon): > 100 µM
- TGI (NCI-H460 lung): > 100 µM
- TGI (NCI-H522 lung): > 100 µM
- TGI (SW-620 colon): > 100 µM
- TGI (U251 CNS): > 100 µM

Compound: Cc1cc2c(cc1C)[n+](=O)c(C(=O)CC(=O)C(=O)Nc1c(C(C)C)cccc1C(C)C)c(C)n2[O-]
- TGI (ACHN renal): > 100 µM
- TGI (CCRF-CEM leukemia): > 100 µM
- TGI (HCT-15 colon): > 100 µM
- TGI (KM12 colon): > 100 µM
- TGI (NCI-H460 lung): > 100 µM
- TGI (NCI-H522 lung): > 100 µM
- TGI (SW-620 colon): > 100 µM
- TGI (U251 CNS): > 100 µM

Compound: N=C1CSC2=NC3=C(CCC/C3=C\c3ccccc3)C(c3ccccc3)N12 (stereo not given)
- TGI (ACHN renal): 24.8 µM
- TGI (CCRF-CEM leukemia): 8.61 µM
- TGI (HL-60(TB) leukemia): 6.3 µM
- TGI (KM12 colon): 13 µM
- TGI (NCI-H460 lung): 14.7 µM
- TGI (NCI-H522 lung): 9.71 µM
- TGI (SW-620 colon): 15.2 µM
- TGI (U251 CNS): 13.6 µM

Compound: COc1ccc2[nH]c3c(C)c4c(c(C)c3c2c1)CN(C)CC4
- TGI (ACHN renal): 35 µM
- TGI (CCRF-CEM leukemia): > 100 µM
- TGI (HCT-15 colon): 35.3 µM
- TGI (HL-60(TB) leukemia): 4.65 µM
- TGI (KM12 colon): 27.1 µM
- TGI (NCI-H460 lung): 24.8 µM
- TGI (NCI-H522 lung): 33.4 µM
- TGI (SW-620 colon): 15.5 µM
- TGI (U251 CNS): 32 µM

Compound: COC(=O)C[C@H]1CCC2(OCCO2)[C@]1(C)C(=O)OC
- TGI (ACHN renal): > 100 µM
- TGI (CCRF-CEM leukemia): > 100 µM
- TGI (HCT-15 colon): > 100 µM
- TGI (HL-60(TB) leukemia): > 100 µM
- TGI (KM12 colon): > 100 µM
- TGI (NCI-H460 lung): > 100 µM
- TGI (NCI-H522 lung): > 100 µM
- TGI (SW-620 colon): > 100 µM
- TGI (U251 CNS): > 100 µM

Compound: COc1ccccc1C1C(C(=O)Nc2ccccc2)=C(C)NC(C)=C1C(=O)Nc1ccccc1
- TGI (ACHN renal): > 100 µM
- TGI (HCT-15 colon): > 100 µM
- TGI (KM12 colon): > 100 µM
- TGI (NCI-H460 lung): > 100 µM
- TGI (NCI-H522 lung): > 100 µM
- TGI (SW-620 colon): > 100 µM
- TGI (U251 CNS): > 100 µM

Compound: COc1ccc2cc1Oc1ccc(cc1)CC1c3cc(c(OC)cc3CCN1C)Oc1c3c(cc4c1C(C2)N(C)CC4)OCO3 (stereo not given)
- TGI (ACHN renal): 13.9 µM
- TGI (CCRF-CEM leukemia): 31.7 µM
- TGI (HCT-15 colon): 14.7 µM
- TGI (HL-60(TB) leukemia): 6.66 µM
- TGI (KM12 colon): 27.2 µM
- TGI (NCI-H460 lung): 28.4 µM
- TGI (NCI-H522 lung): 20.3 µM
- TGI (SW-620 colon): 25.8 µM
- TGI (U251 CNS): 17.3 µM

Compound: CC(=O)Nc1ccccc1Sc1ccccc1
- TGI (ACHN renal): > 100 µM
- TGI (CCRF-CEM leukemia): > 100 µM
- TGI (HCT-15 colon): > 100 µM
- TGI (HL-60(TB) leukemia): > 100 µM
- TGI (KM12 colon): > 100 µM
- TGI (NCI-H460 lung): > 100 µM
- TGI (NCI-H522 lung): > 100 µM
- TGI (SW-620 colon): > 100 µM
- TGI (U251 CNS): > 100 µM

Compound: O=C1C=CC(=Nc2ccc3c(c2)C(Br)c2ccccc2-3)O1 (stereo not given)
- TGI (ACHN renal): > 100 µM
- TGI (CCRF-CEM leukemia): > 100 µM
- TGI (HCT-15 colon): > 100 µM
- TGI (HL-60(TB) leukemia): > 100 µM
- TGI (NCI-H460 lung): > 100 µM
- TGI (NCI-H522 lung): 81.7 µM
- TGI (SW-620 colon): > 100 µM
- TGI (U251 CNS): > 100 µM
